Read-outs that look alike come from different tables or passages of the source.
What was measured:
[1] = biological target: STAT3 (Homo sapiens, UniProt P40763); test: Western blot of basal p-STAT3 (Tyr705) in sarcoma cell lines RH30, EW8, RD; assay type: cell-based; parameters: endogenous in cells; conditions: ES, OS and RMS cells, RH30, EW8, RD treated 30 minutes
Protocol: Cell lysis, protein isolation and immunoblotting were performed as described previously. Twenty micrograms of protein were resolved using 4–12% Bis-Tris polyacrylamide gels. Gels were transferred to PVDF membranes and subjected to blocking and incubation with primary and secondary antibodies. The primary antibodies used in this study included: phospho-STAT3 (Tyr705, Cell Signaling, Boston, MA and Abcam, Cambridge, MA), total STAT3 (Cell Signaling and Abcam), phospho-STAT1 (Cell Signaling), total STAT1 (Cell Signaling), phospho-STAT2 (Cell Signaling), phospho-STAT4 (Cell Signaling), phospho-STAT6 (Cell Signaling), and GAPDH (Cell Signaling). Protein bands were detected using Western Lightning ® Plus Enhanced Chemiluminescence substrate (Perkin Elmer, Waltham, MA) and HyBlot CL ® Autoradiography film (Denville Scientific, Holliston, MA). The cytokines used in this study included: interferon gamma (IFN-γ, Cell Signaling), interferon alpha (IFN-α, Cell Signaling), interleukin-4 (IL-4, Cell Signaling), interleukin-6 (IL-6, Cell Signaling), and oncostatin M (OSM, Cell Signaling).
Fig 1 LY5 inhibits pSTAT3 in sarcoma cell lines. (A) The tumor cell lines RH30, EW8, and RD were treated with increasing concentrations of LY5 for 30 minutes. Cell lysates were collected for Western blotting of p-STAT3, total STAT3, and GAPDH. GAPDH was used as loading control. […]

[2] = Plasma PK profile in mice; assay type: in vivo; conditions: ICR, mouse; for AUC(0-inf): read-out: AUC inf-obs; for bioavailability: read-out: F (bioavailability)
Protocol: Single-dose toxicity studies in mice were performed to identify the maximum tolerated dose of LY5. Additionally, 30 ICR mice (Harlan Laboratories, Indianapolis, IN) were divided into 3 groups to be dosed with 5 mg/kg LY5 (2 mg/ml) by oral (PO), intraperitoneal (IP) or intravenous (IV) routes to establish oral bioavailability. Animals were euthanized and blood was collected at allocated time points (5, 10, 20, 30 and 60 minutes, 2, 4, 6, 8 and 24 hrs) after LY5 administration, plasma was separated by centrifugation and frozen immediately on dry ice. Samples were stored at -80° C prior to analysis.
(§1) The liquid chromatography-mass spectrometry system utilized for these analyses consisted of a Dionex Ultimate 3000 RSLCnano High Performance Liquid Chromatography system and a Thermo Finnigan Quantum Ultras EMR mass spectrometer with an electrospray ionization source. Positive ionization mode was used for both LY5 and the internal standard, hesperetin. Plasma samples were collected and analyzed by the OSU James Comprehensive Cancer Center Pharmacoanalytical Shared Resource. Pharsight Phoenix WinNonlin software using non-compartmental analysis was used to generate PK parameters including maximum plasma concentration (Cmax), amount of time that drug is present at Cmax (Tmax), and total area under the curve (AUC). AUC all and AUC last were calculated by linear trapezoidal method of concentration-time curve up to the last measured point. AUC inf-obs was calculated by log-linear extrapolation of the terminal phase beyond the last collection time. Bioavailability (F) was calculated for IP and PO administration routes. Plasma stability and liver microsomal stability of LY5 were also assessed through this shared resource.

[3] = test system: human rhabdomyosarcoma cell lines RD, JR-1, and RH30; test: Alamar Blue cell viability assay, rhabdomyosarcoma panel; assay type: cell-based; conditions: range over RD, JR-1, RH30
Protocol: Sarcoma cell lines were seeded in 24-well plates in 1X RPMI medium containing 10% fetal bovine serum. Cells were then incubated with DMSO (control) or concentrations of LY5 ranging from 10 nM to 10 μM for 96 hrs. At the end of the incubation period, Alamar Blue (Invitrogen, Carlsbad, CA) was added to cells at one-tenth the volume of the cell culture medium and incubated for 3 hrs at 37° C in the dark. Fluorescence was then measured at an excitation/emissions wavelength of 570/590 nm and emission wavelength of 590 nm.
Fig 2 Biologic activity of LY5 in sarcoma cell lines. Dose response curves for LY5: RMS cell lines (RH30, RD, JR-1), ES cell lines (ES-3, ES-6, ES-7, ES-8), and an OS cell line (OS-17) were treated with LY5 (concentrations ranging from 10 nM to 10 μM) for 96 hours. Cell viability was determined using Alamar Blue staining. IC50 values are indicated for each cell line. Analyses were performed in triplicate and data are plotted as means ± standard deviation.

[4] = Liver microsomal stability; assay type: in vitro ADME, canine; conditions: compared to mice; data not shown
Text: as §1

[5] = biological target: T1, STAT3 (Mus musculus, UniProt P42227); test: Western blot of pSTAT3 in K7M2 cells; assay type: cell-based, murine
T1 construct: endogenous in cells; host or cells: K7M2
T1 sequence (P42227 whole entry): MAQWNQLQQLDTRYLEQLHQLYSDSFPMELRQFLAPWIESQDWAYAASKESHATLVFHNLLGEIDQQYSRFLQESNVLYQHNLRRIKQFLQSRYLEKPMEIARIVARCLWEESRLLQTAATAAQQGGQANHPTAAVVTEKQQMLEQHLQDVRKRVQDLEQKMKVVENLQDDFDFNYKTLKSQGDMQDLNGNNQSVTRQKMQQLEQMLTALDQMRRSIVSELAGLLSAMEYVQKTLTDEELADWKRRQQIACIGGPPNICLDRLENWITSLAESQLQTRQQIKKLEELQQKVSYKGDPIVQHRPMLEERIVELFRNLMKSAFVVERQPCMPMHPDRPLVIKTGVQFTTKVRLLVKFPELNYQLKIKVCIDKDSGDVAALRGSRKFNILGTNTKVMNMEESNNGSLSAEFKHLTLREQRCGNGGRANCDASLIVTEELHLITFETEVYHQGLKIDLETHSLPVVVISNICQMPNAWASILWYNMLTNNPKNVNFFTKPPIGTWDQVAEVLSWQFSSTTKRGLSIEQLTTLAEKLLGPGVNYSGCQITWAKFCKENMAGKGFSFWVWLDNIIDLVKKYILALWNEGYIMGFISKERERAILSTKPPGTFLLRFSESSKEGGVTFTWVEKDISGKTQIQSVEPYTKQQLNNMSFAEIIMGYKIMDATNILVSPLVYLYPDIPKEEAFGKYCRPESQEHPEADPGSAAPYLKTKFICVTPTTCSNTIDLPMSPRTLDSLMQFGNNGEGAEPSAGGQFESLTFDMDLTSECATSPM
Protocol: Murine K7M2 and human MG63.3 OS cells were treated with increasing concentrations of LY5 for 2 hrs or 7 hrs. Western blotting was performed for pSTAT3 and STAT3 as indicated above to confirm inhibition of STAT3 phosphorylation in the cell lines prior to initiation of the PuMA assay. In addition, a sulforhodamine B colorimetric assay was performed to assess the cytotoxicity of LY5 in K7M2 and MG63.3 cells as previously described.
MG63.3 and K7M2 cell lines were exposed to increasing concentrations of LY5 to determine the IC50 (A). Western blot analysis was performed to determine the dose and duration of LY5 exposure required to inhibit STAT3 phosphorylation (B-C). Serial imaging of fluorescently labeled MG63.3 and K7M2 cells was performed in ex vivo LY5 treated lung sections (D). Metastatic burden was quantified by evaluation of the percent tumor burden (mean normalized fluorescent area). Data are reported as the mean ± standard deviation. In MG 63.3 experiment, p < 0.0001 Kruskal-Wallis test, p < 0.05 10 μM vs control at days 7, 14, and 21, 10 μM vs 1 μM at days 7, 14, and 21, 50 μM vs control at days 7, 14, and 21, and 50 μM vs 10 μM at days 7, 14, and 21 post-test Dunn. In K7M2 experiment, p < 0.0001 Kruskal-Wallis test, p < 0.05 10 μM vs control at days 14 and 21, 10 μM vs 0.1 μM at days 14 and 21, and 10 μM vs 1 μM at days 14 and 21, post-test Dunn.

Chain of STAT3 (Homo sapiens, UniProt P40763) (P40763 whole entry): as the sequence (P42227 whole entry) above, with D760E counted along it

Question: What does the source list for `NS(=O)(=O)c1cccc2c1C(=O)C=C(Nc1cccnc1)C2=O` [LY5, 5,8-dioxo-6-(pyridin-3-ylamino)-5,8-dihydronaphthalene-1-sulfonamide]?
Answer: basal STAT3 phosphorylation at Tyr705 [1]: inhibited basal STAT3 phosphorylation; AUC ([2]; 5 mg/kg IP): 0.717 µM·h; Cmax ([2]; 5 mg/kg IP): 545 nM; Tmax ([2]; 5 mg/kg IP): 4.98 min; AUC(0-inf) ([2]; 5 mg/kg IP): 0.794 µM·h; bioavailability ([2]; 5 mg/kg IP): 69.5%; AUC ([2]; 5 mg/kg IV): 1.14 µM·h; Cmax ([2]; 5 mg/kg IV): 1660 nM; Tmax ([2]; 5 mg/kg IV): 4.98 min; AUC(0-inf) ([2]; 5 mg/kg IV): 1.14 µM·h; AUC ([2]; 5 mg/kg PO): 0.784 µM·h; Cmax ([2]; 5 mg/kg PO): 509 nM; Tmax ([2]; 5 mg/kg PO): 30 min; AUC(0-inf) ([2]; 5 mg/kg PO): 0.898 µM·h; bioavailability ([2]; 5 mg/kg PO): 78.6%; IC50 [3]: 200 to 400 nM; stability when incubated with canine liver microsomes [4]: increased stability; concentration for complete inhibition of STAT3 in vitro ([5]; K7M2): 10 µM; exposure time for effective inhibition of STAT3 phosphorylation ([5]; K7M2, 1 μM LY5): 4 h; concentration that decreased STAT3 phosphorylation ([5]; K7M2, 2 hrs treatment): 1 µM

From paper PMC5531494, “Target specificity, in vivo pharmacokinetics, and efficacy of the putative STAT3 inhibitor LY5 in osteosarcoma, Ewing's sarcoma, and rhabdomyosarcoma” (PLoS ONE, 2017)
